Test results as given in PubChem BioAssay AID1963974 (Molecular Pharmacology Branch, DTP, NCI, 2024).

System: 648629-189-R-J1-PDC spheroids with HUVEC/MSC, viability
Experiment: Anticancer human tumor 648629-189-R-J1-PDC patient-derived bladder carcinoma cell line growth inhibition [PI3K]
Conditions: for IC50: curve of first compound; for viability, T/C: stronger effect = lower value
Summary of the method: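 Combination activity was assessed by viability in multicellular tumor spheroids carrying HUVEC and MSC components. Agents were tested with PI3K inhibitors from a Cmax-based top dose (or 10 microM) downward in half-log increments.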

[1] = second compound 0.0316 µM, first compound 0.0316 µM
[2] = second compound 0.0316 µM, first compound 0.1 µM
[3] = second compound 0.0316 µM, first compound 0.316 µM
[4] = second compound 0.0316 µM, first compound 1 µM
[5] = second compound 0.0316 µM, first compound 3.16 µM
[6] = second compound 0.0316 µM, first compound 10 µM
[7] = second compound 0.1 µM, first compound 0.0316 µM
[8] = second compound 0.1 µM, first compound 0.1 µM
[9] = second compound 0.1 µM, first compound 0.316 µM
[10] = second compound 0.1 µM, first compound 1 µM
[11] = second compound 0.1 µM, first compound 3.16 µM
[12] = second compound 0.1 µM, first compound 10 µM
[13] = second compound 0.316 µM, first compound 0.0316 µM
[14] = second compound 0.316 µM, first compound 0.1 µM
[15] = second compound 0.316 µM, first compound 0.316 µM
[16] = second compound 0.316 µM, first compound 1 µM
[17] = second compound 0.316 µM, first compound 3.16 µM
[18] = second compound 0.316 µM, first compound 10 µM
[19] = second compound 1 µM, first compound 0.0316 µM
[20] = second compound 1 µM, first compound 0.1 µM
[21] = second compound 1 µM, first compound 0.316 µM
[22] = second compound 1 µM, first compound 1 µM
[23] = second compound 1 µM, first compound 3.16 µM
[24] = second compound 1 µM, first compound 10 µM
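Further: spheroids exposed to agents for seven days before reading.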
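Wherever viability, T/C is given: percent of vehicle control luminescence where 100% = DMSO treated spheroids.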

**Q.** How did the IC50 (second compound 0.00316 µM) turn out when `CC1(C)CCC(Nc2ncc(C(F)(F)F)c(-c3c[nH]c4c(P(C)(C)=O)c(C#N)ccc34)n2)CN1` (stereo unspecified) + CC(Nc1ccc2c(c1)OCCn1cc(N3C(=O)OCC3C(F)F)nc1-2)C(N)=O was run?
**A.** < 0.0316 µM

**Q.** And the IC50 (second compound 0.01 µM)?
**A.** < 0.0316 µM

**Q.** What about the IC50 (second compound 0.0316 µM) of the same compound?
**A.** < 0.0316 µM

**Q.** What about the IC50 (second compound 0.1 µM) of the same compound?
**A.** < 0.0316 µM

**Q.** And the IC50 (second compound 0.316 µM)?
**A.** < 0.0316 µM

**Q.** And the IC50 (second compound 1 µM)?
**A.** < 0.0316 µM

**Q.** What about the viability, T/C (second compound 0.00316 µM, first compound 0.0316 µM) of the same compound?
**A.** 27.7%

**Q.** And the viability, T/C (second compound 0.00316 µM, first compound 0.1 µM)?
**A.** 27.2%

**Q.** What about the viability, T/C (second compound 0.00316 µM, first compound 0.316 µM) of the same compound?
**A.** 26.8%

**Q.** And the viability, T/C (second compound 0.00316 µM, first compound 1 µM)?
**A.** 35.4%

**Q.** What about the viability, T/C (second compound 0.00316 µM, first compound 3.16 µM) of the same compound?
**A.** 38.7%

**Q.** And the viability, T/C (second compound 0.00316 µM, first compound 10 µM)?
**A.** 2.42%

**Q.** What about the viability, T/C (second compound 0.01 µM, first compound 0.0316 µM) of the same compound?
**A.** 25.3%

**Q.** What about the viability, T/C (second compound 0.01 µM, first compound 0.1 µM) of the same compound?
**A.** 25.8%

**Q.** What about the viability, T/C (second compound 0.01 µM, first compound 0.316 µM) of the same compound?
**A.** 26.3%

**Q.** And the viability, T/C (second compound 0.01 µM, first compound 1 µM)?
**A.** 31.1%

**Q.** What about the viability, T/C (second compound 0.01 µM, first compound 3.16 µM) of the same compound?
**A.** 38.2%

**Q.** And the viability, T/C (second compound 0.01 µM, first compound 10 µM)?
**A.** 3.09%

**Q.** What about the viability, T/C [1] of the same compound?
**A.** 26.6%

**Q.** And the viability, T/C [2]?
**A.** 23.4%

**Q.** And the viability, T/C [3]?
**A.** 26.6%

**Q.** What about the viability, T/C [4] of the same compound?
**A.** 28.5%

**Q.** What about the viability, T/C [5] of the same compound?
**A.** 37.6%

**Q.** What about the viability, T/C [6] of the same compound?
**A.** 3%

**Q.** What about the viability, T/C [7] of the same compound?
**A.** 24.1%

**Q.** And the viability, T/C [8]?
**A.** 23.4%

**Q.** What about the viability, T/C [9] of the same compound?
**A.** 26.1%

**Q.** And the viability, T/C [10]?
**A.** 23.4%

**Q.** And the viability, T/C [11]?
**A.** 33.1%

**Q.** And the viability, T/C [12]?
**A.** 2.67%

**Q.** And the viability, T/C [13]?
**A.** 23.4%

**Q.** What about the viability, T/C [14] of the same compound?
**A.** 25.8%

**Q.** And the viability, T/C [15]?
**A.** 23.8%

**Q.** And the viability, T/C [16]?
**A.** 28.9%

**Q.** And the viability, T/C [17]?
**A.** 29.8%

**Q.** And the viability, T/C [18]?
**A.** 2.95%

**Q.** And the viability, T/C [19]?
**A.** 19.8%

**Q.** What about the viability, T/C [20] of the same compound?
**A.** 22.6%

**Q.** And the viability, T/C [21]?
**A.** 26.1%

**Q.** What about the viability, T/C [22] of the same compound?
**A.** 23.1%

**Q.** And the viability, T/C [23]?
**A.** 27.2%

**Q.** What about the viability, T/C [24] of the same compound?
**A.** 1.52%

**Q.** What does the source list for `CNC(=O)c1ccc(N2C(=S)N(c3ccc(C#N)c(C(F)(F)F)c3)C(=O)C2(C)C)cc1F` + CC(Nc1ncnc2nc[nH]c12)c1cc2cccc(Cl)c2c(=O)n1-c1ccccc1?
**A.** IC50 (second compound 0.0316 µM): > 10 µM; IC50 (second compound 0.1 µM): > 10 µM; IC50 (second compound 0.316 µM): > 10 µM; IC50 (second compound 1 µM): > 10 µM; IC50 (second compound 3.16 µM): > 10 µM; IC50 (second compound 10 µM): > 10 µM; viability, T/C [1]: 113%; viability, T/C [2]: 107%; viability, T/C [3]: 101%; viability, T/C [4]: 102%; viability, T/C [5]: 102%; viability, T/C [6]: 87.4%; viability, T/C [7]: 113%; viability, T/C [8]: 98.9%; viability, T/C [9]: 96.6%; viability, T/C [10]: 97.8%; viability, T/C [11]: 92.8%; viability, T/C [12]: 80.2%; viability, T/C [13]: 105%; viability, T/C [14]: 111%; viability, T/C [15]: 93.5%; viability, T/C [16]: 104%; viability, T/C [17]: 118%; viability, T/C [18]: 78.9%; viability, T/C [19]: 99%; viability, T/C [20]: 101%; viability, T/C [21]: 100%; viability, T/C [22]: 97.1%; viability, T/C [23]: 105%; viability, T/C [24]: 88.5%; viability, T/C (second compound 3.16 µM, first compound 0.0316 µM): 92%; viability, T/C (second compound 3.16 µM, first compound 0.1 µM): 109%; viability, T/C (second compound 3.16 µM, first compound 0.316 µM): 93.9%; viability, T/C (second compound 3.16 µM, first compound 1 µM): 95.3%; viability, T/C (second compound 3.16 µM, first compound 3.16 µM): 95.5%; viability, T/C (second compound 3.16 µM, first compound 10 µM): 90.8%; viability, T/C (second compound 10 µM, first compound 0.0316 µM): 82.7%; viability, T/C (second compound 10 µM, first compound 0.1 µM): 87.1%; viability, T/C (second compound 10 µM, first compound 0.316 µM): 100%; viability, T/C (second compound 10 µM, first compound 1 µM): 91.1%; viability, T/C (second compound 10 µM, first compound 3.16 µM): 87.7%; viability, T/C (second compound 10 µM, first compound 10 µM): 69%

**Q.** What does the source list for `Cn1cnc2c(F)c(Nc3ccc(Br)cc3Cl)c(C(=O)NOCCO)cc21` + CC(Nc1ncnc2nc[nH]c12)c1cc2cccc(Cl)c2c(=O)n1-c1ccccc1?
**A.** IC50 (second compound 0.0316 µM): > 3 µM; IC50 (second compound 0.1 µM): > 3 µM; IC50 (second compound 0.316 µM): > 3 µM; IC50 (second compound 1 µM): > 3 µM; IC50 (second compound 3.16 µM): > 3 µM; IC50 (second compound 10 µM): > 3 µM; viability, T/C (second compound 0.0316 µM, first compound 0.00949 µM): 101%; viability, T/C (second compound 0.0316 µM, first compound 0.03 µM): 86.2%; viability, T/C (second compound 0.0316 µM, first compound 0.0949 µM): 84%; viability, T/C (second compound 0.0316 µM, first compound 0.3 µM): 101%; viability, T/C (second compound 0.0316 µM, first compound 0.949 µM): 93.6%; viability, T/C (second compound 0.0316 µM, first compound 3 µM): 81.6%; viability, T/C (second compound 0.1 µM, first compound 0.00949 µM): 97.1%; viability, T/C (second compound 0.1 µM, first compound 0.03 µM): 93.6%; viability, T/C (second compound 0.1 µM, first compound 0.0949 µM): 102%; viability, T/C (second compound 0.1 µM, first compound 0.3 µM): 95.5%; viability, T/C (second compound 0.1 µM, first compound 0.949 µM): 107%; viability, T/C (second compound 0.1 µM, first compound 3 µM): 90.1%; viability, T/C (second compound 0.316 µM, first compound 0.00949 µM): 95.8%; viability, T/C (second compound 0.316 µM, first compound 0.03 µM): 101%; viability, T/C (second compound 0.316 µM, first compound 0.0949 µM): 94%; viability, T/C (second compound 0.316 µM, first compound 0.3 µM): 114%; viability, T/C (second compound 0.316 µM, first compound 0.949 µM): 105%; viability, T/C (second compound 0.316 µM, first compound 3 µM): 79.2%; viability, T/C (second compound 1 µM, first compound 0.00949 µM): 105%; viability, T/C (second compound 1 µM, first compound 0.03 µM): 100%; viability, T/C (second compound 1 µM, first compound 0.0949 µM): 94.9%; viability, T/C (second compound 1 µM, first compound 0.3 µM): 98.9%; viability, T/C (second compound 1 µM, first compound 0.949 µM): 88.3%; viability, T/C (second compound 1 µM, first compound 3 µM): 88.2%; viability, T/C (second compound 3.16 µM, first compound 0.00949 µM): 103%; viability, T/C (second compound 3.16 µM, first compound 0.03 µM): 101%; viability, T/C (second compound 3.16 µM, first compound 0.0949 µM): 94.2%; viability, T/C (second compound 3.16 µM, first compound 0.3 µM): 108%; viability, T/C (second compound 3.16 µM, first compound 0.949 µM): 89.2%; viability, T/C (second compound 3.16 µM, first compound 3 µM): 84.4%; viability, T/C (second compound 10 µM, first compound 0.00949 µM): 93.2%; viability, T/C (second compound 10 µM, first compound 0.03 µM): 80.3%; viability, T/C (second compound 10 µM, first compound 0.0949 µM): 92.1%; viability, T/C (second compound 10 µM, first compound 0.3 µM): 92.8%; viability, T/C (second compound 10 µM, first compound 0.949 µM): 79%; viability, T/C (second compound 10 µM, first compound 3 µM): 68.6%
